Target: T1, DPP-IV activity from human colonic carcinoma cell extracts (Caco-2) (Homo sapiens, UniProt P27487)
T1 construct: Cell extract is prepared from cells solubilized in 10 mM Tris HCI, 0.15 M NaCI, 0.04 t.i.u.aprotinin, 0.5% nonidet-P40; host or cells: Caco-2, differentiated to induce DPP-IV expression; detergent-solubilized extract
Assay: caco-2 DPP-IV Assay (CaCo2 extract, fluorescence, H-Gly-Pro-AMC substrate)
Format: biochemical
Conditions: solubilized Caco-2 protein extract; 11-point dose-response curves, 4 parameter logistic function
Procedure: As indicated above, all of the compounds, and their corresponding pharmaceutically-acceptable salts, are useful in inhibiting DPP-IV. […] The human colonic carcinoma cell line Caco-2 was obtained from the American Type Culture Collection (ATCC HTB 37). Differentiation of the cells to induce DPP-IV expression was accomplished as described by Reisher, et al. (Proc. Natl. Acad. Sci., Vol. 90, pgs. 5757-5761 (1993)). Cell extract is prepared from cells solubilized in 10 mM Tris HCI, 0.15 M NaCI, 0.04 t.i.u.aprotinin, 0.5% nonidet-P40, pH 8.0, which is centrifuged at 35,000 g for 30 min at 4° C. to remove cell debris.
The […] assay is conducted by adding 20 μg solubilized Caco-2 protein or purified porcine kidney DPP-IV, in a final volume of 10 ul in assay buffer (25 mM Tris HCl pH 7.4, 140 mM NaCl, 10 mM KCl, 0.1% Triton-x-100) to microtiter plate wells. […] The endpoint is determined by measuring absorbance at 405 nm in a Labsystems microtiter plate reader.
Activity of CaCo2 extract is also measured employing a modified version of the assay described in Kubota, et al. (Clin. Exp. Immunol., Vol. 89, pgs. 192-197 (1992)). […] After the 10 min. reaction, florescence is measured using a Tecan Ultra fluorimeter (Excitation 360 nm Emission 465 nm). […]

T1 sequence (P27487 whole entry): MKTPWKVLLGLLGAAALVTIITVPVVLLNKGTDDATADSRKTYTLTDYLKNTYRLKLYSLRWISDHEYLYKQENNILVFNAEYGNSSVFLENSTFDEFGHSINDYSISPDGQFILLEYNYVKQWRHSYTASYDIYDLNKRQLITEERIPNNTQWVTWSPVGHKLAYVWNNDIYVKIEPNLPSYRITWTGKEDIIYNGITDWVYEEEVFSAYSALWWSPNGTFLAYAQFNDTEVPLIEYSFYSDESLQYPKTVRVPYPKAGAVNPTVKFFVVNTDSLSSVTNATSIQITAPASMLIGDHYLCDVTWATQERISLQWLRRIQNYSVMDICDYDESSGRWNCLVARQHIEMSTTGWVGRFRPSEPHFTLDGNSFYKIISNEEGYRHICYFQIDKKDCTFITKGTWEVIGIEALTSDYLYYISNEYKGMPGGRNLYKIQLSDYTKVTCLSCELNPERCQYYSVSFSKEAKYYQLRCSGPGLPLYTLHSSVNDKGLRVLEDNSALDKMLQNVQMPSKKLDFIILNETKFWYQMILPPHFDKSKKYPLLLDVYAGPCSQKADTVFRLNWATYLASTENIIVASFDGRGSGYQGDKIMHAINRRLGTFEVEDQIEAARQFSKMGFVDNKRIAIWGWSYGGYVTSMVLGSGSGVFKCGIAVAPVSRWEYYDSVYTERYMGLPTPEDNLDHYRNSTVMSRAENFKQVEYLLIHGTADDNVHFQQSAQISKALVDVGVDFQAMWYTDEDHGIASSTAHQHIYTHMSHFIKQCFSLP

IC50: 580 nM
SMILES: N[C@@H](CC(=O)NC1Cc2ccccc2NC1=O)Cc1ccccc1F (stereo partly drawn) [Example 1, (3R)-3-Amino-4-(2-fluorophenyl)-N-(2-oxo-1,2,3,4-tetrahydroquinolin-3-yl)butanamide]

— patent publication US20080009512A1, “Tetrahydroquinolones and Aza-Analogues Thereof for Use as Dpp-IV Inhibitors in the Treatment of Diabetes” (ASTRAZENECA AB, priority 2004, published 2008)
